Results as given in patent publication US12404262B2 (priority 2021, dated 2025).

Conditions: 1.0% DMSO, 24-hour incubation at ambient temperature, maximum theoretical 100 μM; for pH 2 solubility: 0.1N HCl, first value of the cell; for pH 7 solubility: 1×PBS buffer (pH 7.4), second value of the cell

Row | SMILES | pH 2 solubility | pH 7 solubility
1 | C[C@H](OC(=O)N(c1nn(CC(F)(F)F)c2c(-c3ccc(C#CC(C)(C)S(C)(=O)=O)nc3[C@H](Cc3cc(F)cc(F)c3)NC(=O)Cn3nc(C(F)(F)F)c4c3C(F)(F)[C@@H]3C[C@H]43)ccc(Cl)c12)S(C)(=O)=O)[C@H](C)OP(=O)(O)O [Compound 96, (2S,3S)-3-(phosphonooxy)butan-2-yl (4-chloro-7-(2-((S)-1-(2-((3bS,4aR)-5,5-difluoro-3-(trifluoromethyl)-3b,4,4a,5-tetrahydro-1H-cyclopropa[3,4]cyclopenta[1,2-c]pyrazol-1-yl)acetamido)-2-(3,5-difluorophenyl)ethyl)-6-(3-methyl-3-(methylsulfonyl)but-1-yn-1-yl)pyridin-3-yl)-1-(2,2,2-trifluoroethyl)-1H-indazol-3-yl)(methylsulfonyl)carbamate] | 1 μM | 99 μM
2 | CC(C)(C#Cc1ccc(-c2ccc(Cl)c3c(N(C(=O)OCCCO)S(C)(=O)=O)nn(CC(F)(F)F)c23)c([C@H](Cc2cc(F)cc(F)c2)NC(=O)Cn2nc(C(F)(F)F)c3c2C(F)(F)[C@@H]2C[C@H]32)n1)S(C)(=O)=O [Compound 97, 3-hydroxypropyl (4-chloro-7-(2-((S)-1-(2-((3bS,4aR)-5,5-difluoro-3-(trifluoromethyl)-3b,4,4a,5-tetrahydro-1H-cyclopropa[3,4]cyclopenta[1,2-c]pyrazol-1-yl)acetamido)-2-(3,5-difluorophenyl)ethyl)-6-(3-methyl-3-(methylsulfonyl)but-1-yn-1-yl)pyridin-3-yl)-1-(2,2,2-trifluoroethyl)-1H-indazol-3-yl)(methylsulfonyl)carbamate] | 1 μM | 2 μM
3 | CC(C)(C#Cc1ccc(-c2ccc(Cl)c3c(N(C(=O)OCCCOP(=O)(O)O)S(C)(=O)=O)nn(CC(F)(F)F)c23)c([C@H](Cc2cc(F)cc(F)c2)NC(=O)Cn2nc(C(F)(F)F)c3c2C(F)(F)[C@@H]2C[C@H]32)n1)S(C)(=O)=O [Compound 98, 3-(phosphonooxy)propyl (4-chloro-7-(2-((S)-1-(2-((3bS,4aR)-5,5-difluoro-3-(trifluoromethyl)-3b,4,4a,5-tetrahydro-1H-cyclopropa[3,4]cyclopenta[1,2-c]pyrazol-1-yl)acetamido)-2-(3,5-difluorophenyl)ethyl)-6-(3-methyl-3-(methylsulfonyl)but-1-yn-1-yl)pyridin-3-yl)-1-(2,2,2-trifluoroethyl)-1H-indazol-3-yl)(methylsulfonyl)carbamate] | 1 μM | 100 μM
4 | CC(C)(C#Cc1ccc(-c2ccc(Cl)c3c(N(C(=O)OCCO)S(C)(=O)=O)nn(CC(F)(F)F)c23)c([C@H](Cc2cc(F)cc(F)c2)NC(=O)Cn2nc(C(F)(F)F)c3c2C(F)(F)[C@@H]2C[C@H]32)n1)S(C)(=O)=O [Compound 99, 2-hydroxyethyl (4-chloro-7-(2-((S)-1-(2-((3bS,4aR)-5,5-difluoro-3-(trifluoromethyl)-3b,4,4a,5-tetrahydro-1H-cyclopropa[3,4]cyclopenta[1,2-c]pyrazol-1-yl)acetamido)-2-(3,5-difluorophenyl)ethyl)-6-(3-methyl-3-(methylsulfonyl)but-1-yn-1-yl)pyridin-3-yl)-1-(2,2,2-trifluoroethyl)-1H-indazol-3-yl)(methylsulfonyl)carbamate] | 1/1 μM | 1/1 μM
5 | CC(C)(C#Cc1ccc(-c2ccc(Cl)c3c(N(C(=O)OCCOP(=O)(O)O)S(C)(=O)=O)nn(CC(F)(F)F)c23)c([C@H](Cc2cc(F)cc(F)c2)NC(=O)Cn2nc(C(F)(F)F)c3c2C(F)(F)[C@@H]2C[C@H]32)n1)S(C)(=O)=O [Compound 100, 2-(phosphonooxy)ethyl (4-chloro-7-(2-((S)-1-(2-((3bS,4aR)-5,5-difluoro-3-(trifluoromethyl)-3b,4,4a,5-tetrahydro-1H-cyclopropa[3,4]cyclopenta[1,2-c]pyrazol-1-yl)acetamido)-2-(3,5-difluorophenyl)ethyl)-6-(3-methyl-3-(methylsulfonyl)but-1-yn-1-yl)pyridin-3-yl)-1-(2,2,2-trifluoroethyl)-1H-indazol-3-yl)(methylsulfonyl)carbamate] | 2 μM | 100 μM
6 | CC(C)(C#Cc1ccc(-c2ccc(Cl)c3c(N(C(=O)OCCCCOP(=O)(O)O)S(C)(=O)=O)nn(CC(F)(F)F)c23)c([C@H](Cc2cc(F)cc(F)c2)NC(=O)Cn2nc(C(F)(F)F)c3c2C(F)(F)[C@@H]2C[C@H]32)n1)S(C)(=O)=O [Compound 102, 4-(phosphonooxy)butyl (4-chloro-7-(2-((S)-1-(2-((3bS,4aR)-5,5-difluoro-3-(trifluoromethyl)-3b,4,4a,5-tetrahydro-1H-cyclopropa[3,4]cyclopenta[1,2-c]pyrazol-1-yl)acetamido)-2-(3,5-difluorophenyl)ethyl)-6-(3-methyl-3-(methylsulfonyl)but-1-yn-1-yl)pyridin-3-yl)-1-(2,2,2-trifluoroethyl)-1H-indazol-3-yl)(methylsulfonyl)carbamate] | 1 μM | 100 μM
7 | CC(C)(C#Cc1ccc(-c2ccc(Cl)c3c(N(C(=O)OCCCCCO)S(C)(=O)=O)nn(CC(F)(F)F)c23)c([C@H](Cc2cc(F)cc(F)c2)NC(=O)Cn2nc(C(F)(F)F)c3c2C(F)(F)[C@@H]2C[C@H]32)n1)S(C)(=O)=O [Compound 103, 5-hydroxypentyl (4-chloro-7-(2-((S)-1-(2-((3bS,4aR)-5,5-difluoro-3-(trifluoromethyl)-3b,4,4a,5-tetrahydro-1H-cyclopropa[3,4]cyclopenta[1,2-c]pyrazol-1-yl)acetamido)-2-(3,5-difluorophenyl)ethyl)-6-(3-methyl-3-(methylsulfonyl)but-1-yn-1-yl)pyridin-3-yl)-1-(2,2,2-trifluoroethyl)-1H-indazol-3-yl)(methylsulfonyl)carbamate] | 1/1 μM | 1/1 μM
8 | CC(C)(C#Cc1ccc(-c2ccc(Cl)c3c(N(C(=O)OCCCCCOP(=O)(O)O)S(C)(=O)=O)nn(CC(F)(F)F)c23)c([C@H](Cc2cc(F)cc(F)c2)NC(=O)Cn2nc(C(F)(F)F)c3c2C(F)(F)[C@@H]2C[C@H]32)n1)S(C)(=O)=O [Compound 104, 5-(phosphonooxy)pentyl (4-chloro-7-(2-((S)-1-(2-((3bS,4aR)-5,5-difluoro-3-(trifluoromethyl)-3b,4,4a,5-tetrahydro-1H-cyclopropa[3,4]cyclopenta[1,2-c]pyrazol-1-yl)acetamido)-2-(3,5-difluorophenyl)ethyl)-6-(3-methyl-3-(methylsulfonyl)but-1-yn-1-yl)pyridin-3-yl)-1-(2,2,2-trifluoroethyl)-1H-indazol-3-yl)(methylsulfonyl)carbamate] | 1 μM | 89 μM
9 | CC(C)(C#Cc1ccc(-c2ccc(Cl)c3c(N(C(=O)OCCOCCOP(=O)(O)O)S(C)(=O)=O)nn(CC(F)(F)F)c23)c([C@H](Cc2cc(F)cc(F)c2)NC(=O)Cn2nc(C(F)(F)F)c3c2C(F)(F)[C@@H]2C[C@H]32)n1)S(C)(=O)=O [Compound 106, 2-(2-(phosphonooxy)ethoxy)ethyl (4-chloro-7-(2-((S)-1-(2-((3bS,4aR)-5,5-difluoro-3-(trifluoromethyl)-3b,4,4a,5-tetrahydro-1H-cyclopropa[3,4]cyclopenta[1,2-c]pyrazol-1-yl)acetamido)-2-(3,5-difluorophenyl)ethyl)-6-(3-methyl-3-(methylsulfonyl)but-1-yn-1-yl)pyridin-3-yl)-1-(2,2,2-trifluoroethyl)-1H-indazol-3-yl)(methylsulfonyl)carbamate] | 4 μM | 100 μM
10 | CC(C)(C#Cc1ccc(-c2ccc(Cl)c3c(N(C(=O)OCCOCCOCCO)S(C)(=O)=O)nn(CC(F)(F)F)c23)c([C@H](Cc2cc(F)cc(F)c2)NC(=O)Cn2nc(C(F)(F)F)c3c2C(F)(F)[C@@H]2C[C@H]32)n1)S(C)(=O)=O [Compound 107, 2-(2-(2-hydroxyethoxy)ethoxy)ethyl (4-chloro-7-(2-((S)-1-(2-((3bS,4aR)-5,5-difluoro-3-(trifluoromethyl)-3b,4,4a,5-tetrahydro-1H-cyclopropa[3,4]cyclopenta[1,2-c]pyrazol-1-yl)acetamido)-2-(3,5-difluorophenyl)ethyl)-6-(3-methyl-3-(methylsulfonyl)but-1-yn-1-yl)pyridin-3-yl)-1-(2,2,2-trifluoroethyl)-1H-indazol-3-yl)(methylsulfonyl)carbamate] | 4 μM | 1 μM
11 | CC(C)(C#Cc1ccc(-c2ccc(Cl)c3c(N(C(=O)OCCOCCOCCOP(=O)(O)O)S(C)(=O)=O)nn(CC(F)(F)F)c23)c([C@H](Cc2cc(F)cc(F)c2)NC(=O)Cn2nc(C(F)(F)F)c3c2C(F)(F)[C@@H]2C[C@H]32)n1)S(C)(=O)=O [Compound 108, 2-(2-(2-(phosphonooxy)ethoxy)ethoxy)ethyl (4-chloro-7-(2-((S)-1-(2-((3bS,4aR)-5,5-difluoro-3-(trifluoromethyl)-3b,4,4a,5-tetrahydro-1H-cyclopropa[3,4]cyclopenta[1,2-c]pyrazol-1-yl)acetamido)-2-(3,5-difluorophenyl)ethyl)-6-(3-methyl-3-(methylsulfonyl)but-1-yn-1-yl)pyridin-3-yl)-1-(2,2,2-trifluoroethyl)-1H-indazol-3-yl)(methylsulfonyl)carbamate] | 1 μM | 100 μM
12 | CC(C)(C#Cc1ccc(-c2ccc(Cl)c3c(N(C(=O)OCCOCCOCCOCCOP(=O)(O)O)S(C)(=O)=O)nn(CC(F)(F)F)c23)c([C@H](Cc2cc(F)cc(F)c2)NC(=O)Cn2nc(C(F)(F)F)c3c2C(F)(F)[C@@H]2C[C@H]32)n1)S(C)(=O)=O [Compound 110, 2-(2-(2-(2-(phosphonooxy)ethoxy)ethoxy)ethoxy)ethyl (4-chloro-7-(2-((S)-1-(2-((3bS,4aR)-5,5-difluoro-3-(trifluoromethyl)-3b,4,4a,5-tetrahydro-1H-cyclopropa[3,4]cyclopenta[1,2-c]pyrazol-1-yl)acetamido)-2-(3,5-difluorophenyl)ethyl)-6-(3-methyl-3-(methylsulfonyl)but-1-yn-1-yl)pyridin-3-yl)-1-(2,2,2-trifluoroethyl)-1H-indazol-3-yl)(methylsulfonyl)carbamate] | 1 μM | 100 μM
